According to patent US20150065717A1, “NIPECOTIC ACID DERIVATIVE AND USE THEREOF FOR MEDICAL PURPOSES” (Toray Industries, Inc., priority 2012, published 2015):

Target: T1, recombinant human sEH (Homo sapiens, UniProt P34913)
T1 construct: purchased Cayman
T1 sequence (P34913 1-555): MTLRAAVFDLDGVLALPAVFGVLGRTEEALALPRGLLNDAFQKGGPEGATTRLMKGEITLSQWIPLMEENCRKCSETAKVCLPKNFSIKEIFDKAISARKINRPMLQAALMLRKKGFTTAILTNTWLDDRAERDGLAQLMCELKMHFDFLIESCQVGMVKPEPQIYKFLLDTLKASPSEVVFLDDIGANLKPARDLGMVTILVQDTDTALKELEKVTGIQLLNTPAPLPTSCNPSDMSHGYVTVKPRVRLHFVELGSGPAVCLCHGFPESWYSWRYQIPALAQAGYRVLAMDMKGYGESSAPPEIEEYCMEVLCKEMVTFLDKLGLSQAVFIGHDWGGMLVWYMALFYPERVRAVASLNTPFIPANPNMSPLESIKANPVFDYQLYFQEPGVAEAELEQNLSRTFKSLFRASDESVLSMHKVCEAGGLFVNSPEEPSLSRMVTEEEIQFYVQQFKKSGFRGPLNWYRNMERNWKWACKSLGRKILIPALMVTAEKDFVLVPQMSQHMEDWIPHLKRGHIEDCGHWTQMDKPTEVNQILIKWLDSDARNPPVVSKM
Experiment: In vitro evaluation test for sEH inhibitory activity
Assay type: biochemical
Conditions: recombinant human sEH 0.026 μg/mL, fluorescent substrate 6.25 μmol/L, room temperature
Description: According to the method described in a known document (Analytical Biochemistry, 2005, vol. 343, p. 66-75), the sEH inhibitory activity of each nipecotic acid derivative (I) or a pharmaceutically acceptable salt thereof was evaluated using human sEH.
A recombinant human sEH (final concentration, 0.026 μg/mL; Cayman) was incubated with each test compound in 25 mM Bis-Tris-HCl buffer (pH 7.0) supplemented with 0.1 mg/mL BSA at room temperature for 30 minutes. Thereafter, cyano(6-methoxynaphthalen-2-yl)methyl 2-(3-phenyloxiran-2-yl)acetate (final concentration, 6.25 μmol/L; Cayman) was added thereto as a fluorescent substrate, and the resulting mixture was incubated at room temperature for 20 minutes. The reaction was then stopped by addition of ZnSO4 (final concentration, 0.2 mol/L), and the fluorescence intensity was measured (Fusion α (Packard); Excitation: 330 nm, Emission:485 nm).
The fluorescence intensity observed with addition of neither sEH nor a test compound was regarded as the sEH enzymatic reaction rate of 0%, and the fluorescence intensity observed with addition of sEH but without addition of a test compound was regarded as the sEH enzymatic reaction rate of 100%. From the obtained fluorescence intensity, the sEH enzymatic reaction rate of each test compound was calculated to determine IC50.

SMILES | IC50
CS(=O)(=O)NC1(C(=O)N2CCC[C@@H](C(=O)NCc3ccc(C#N)cc3OC(F)(F)F)C2)CCOCC1 [Example Compound 28, (R)—N-(4-cyano-2-(trifluoromethoxy)benzyl)-1-(4-(methylsulfonamido)tetrahydro-2H-pyran-4-carbonyl)piperidine-3-carboxamide] | 2.3 nM
N#Cc1ccc(CNC(=O)[C@@H]2CCCN(C(=O)C3(NC(=O)C4CC4)CCC3)C2)c(OC(F)(F)F)c1 [Example Compound 29, (R)—N-(4-cyano-2-(trifluoromethoxy)benzyl)-1-(1-(cyclopropanecarboxamide)cyclobutanecarbonyl)piperidine-3-carboxamide] | 1.7 nM
CC(=O)N[C@@H](C(=O)N1CCC[C@@H](C(=O)NCc2ccc(C#N)cc2OC(F)(F)F)C1)C(C)(C)O [Example Compound 30, (R)-1-((R)-2-acetamido-3-hydroxy-3-methylbutanoyl)-N-(4-cyano-2-(trifluoromethoxy)benzyl)piperidine-3-carboxamide] | 1.4 nM
CCC(=O)N[C@@H](C(=O)N1CCC[C@@H](C(=O)NCc2ccc(C#N)cc2OC(F)(F)F)C1)C(C)(C)O [Example Compound 31, (R)—N-(4-cyano-2-(trifluoromethoxy)benzyl)-1-((R)-3-hydroxy-3-methyl-2-propionamidobutanoyl)piperidine-3-carboxamide] | 1.3 nM
CC(C)(O)[C@@H](NS(C)(=O)=O)C(=O)N1CCC[C@@H](C(=O)NCc2ccc(C#N)cc2OC(F)(F)F)C1 [Example Compound 32, (R)—N-(4-cyano-2-(trifluoromethoxy)benzyl)-1-((R)-3-hydroxy-3-methyl-2-(methylsulfonamido)butanoyl)piperidine-3-carboxamide] | 1 nM
CCCC(=O)NC1(C(=O)N2CCC[C@@H](C(=O)NCc3ccc(C#N)cc3OC(F)(F)F)C2)CCC1 [Example Compound 33, (R)-1-(1-butylamidocyclobutanecarbonyl)-N-(4-cyano-2-(trifluoromethoxy)benzyl)piperidine-3-carboxamide] | 2.4 nM
N#Cc1ccc(CNC(=O)[C@@H]2CCCN(C(=O)C3(NC(=O)CC4CC4)CCC3)C2)c(OC(F)(F)F)c1 [Example Compound 34, (R)—N-(4-cyano-2-(trifluoromethoxy)benzyl)-1-(1-(2-cyclopropylacetamido)cyclobutanecarbonyl)piperidine-3-carboxamide] | 0.8 nM
N#Cc1ccc(CNC(=O)[C@@H]2CCCN(C(=O)C3(NC(=O)CC4CC4)CC3)C2)c(OC(F)(F)F)c1 [Example Compound 35, (R)—N-(4-cyano-2-(trifluoromethoxy)benzyl)-1-(1-(2-cyclopropylacetamido)cyclopropanecarbonyl)piperidine-3-carboxamide] | 6.7 nM
CC(C)(C(=O)N1CCC[C@@H](C(=O)NCc2ccc(C#N)cc2OC(F)(F)F)C1)n1cncn1 [Example Compound 36, (R)—N-(4-cyano-2-(trifluoromethoxy)benzyl)-1-(2-methyl-2-(1H-1,2,4-triazol-1-yl)propanoyl)piperidine-3-carboxamide] | 1.5 nM
O=C(NCc1ccc(Cl)cc1Cl)[C@@H]1CCCN(C(=O)C2(O)CCCCC2)C1 [Example Compound 38, (R)—N-(2,4-dichlorobenzyl)-1-(1-hydroxycyclohexanecarbonyl)piperidine-3-carboxamide] | 2.1 nM
CC(=O)N[C@@H](C(=O)N1CCC[C@@H](C(=O)NCc2ccc(Cl)cc2Cl)C1)C(C)(C)O [Example Compound 39] | 0.7 nM
CCC(=O)N[C@@H](C(=O)N1CCC[C@@H](C(=O)NCc2ccc(Cl)cc2Cl)C1)C(C)(C)O [Example Compound 40, (R)—N-(2,4-dichlorobenzyl)-1-((R)-3-hydroxy-3-methyl-2-propionamidobutanoyl)piperidine-3-carboxamide] | 0.7 nM
CC(C)(O)[C@@H](NS(C)(=O)=O)C(=O)N1CCC[C@@H](C(=O)NCc2ccc(Cl)cc2Cl)C1 [Example Compound 41, (R)—N-(2,4-dichlorobenzyl)-1-((R)-3-hydroxy-3-methyl-2-(methylsulfonamido)butanoyl)piperidine-3-carboxamide] | 1.1 nM
C[C@@H](O)C(=O)N1CCC[C@@H](C(=O)NCc2ccc(C#N)cc2OC(F)(F)F)C1 [Example Compound 42, (R)—N-(4-cyano-2-(trifluoromethoxy)benzyl)-1-((R)-2-hydroxypropanoyl)piperidine-3-carboxamide] | 3.5 nM
CC[C@@H](O)C(=O)N1CCC[C@@H](C(=O)NCc2ccc(C#N)cc2OC(F)(F)F)C1 [Example Compound 43, (R)—N-(4-cyano-2-(trifluoromethoxy)benzyl)-1-((R)-2-hydroxybutanoyl)piperidine-3-carboxamide] | 1.2 nM
CC(C)[C@@H](O)C(=O)N1CCC[C@@H](C(=O)NCc2ccc(C#N)cc2OC(F)(F)F)C1 [Example Compound 44, (R)—N-(4-cyano-2-(trifluoromethoxy)benzyl)-1-((R)-2-hydroxy-3-methylbutanoyl)piperidine-3-carboxamide] | 0.5 nM

Test system: rat diabetic nephropathy model
Experiment: Pharmacological effect in rat diabetic nephropathy model (streptozotocin)
Assay type: in vivo, rat (spontaneously hypertensive rat)
Conditions: Day 27 after streptozotocin; orally once per day for 20 days from Day 8 (Example Compound 1 10 mg/kg, imidapril 2 mg/kg); mean±standard error, n=6
Description: Example Compound 1 was administered to a rat diabetic nephropathy model (International Journal of Molecular Medicine, 2007, vol. 19, p. 571-579; Hypertension, 1998, vol. 32, p. 778-785), and the therapeutic effect of the nipecotic acid derivative (I) or a pharmaceutically acceptable salt thereof on chronic renal disease with diabetic nephropathy was evaluated.
Rats (spontaneously hypertensive rat, male, 12 or 13 weeks old; Charles River Laboratories Japan, Inc.) with diabetic nephropathy induced by administration of an aqueous streptozotocin (Enzo Life Sciences, Inc.) solution (40 mg/kg) into the tail vein were provided as “group with induced diabetic nephropathy”. On the other hand, rats to which water for injection was similarly administered were provided as “untreated group”.
Six weeks after administration of streptozotocin, urine was collected using a metabolic cage at room temperature for 24 hours. The urinary albumin concentration in the collected urine was measured by the ELISA method. From the urinary albumin concentration and the urine weight, the amount of urinary albumin excretion was calculated.
To rats showing pathological conditions of diabetic nephropathy in the group with induced diabetic nephropathy, Example Compound 1 (10 mg/kg) or a positive control compound imidapril (2 mg/kg) was orally administered once per day for 20 days from Day 8 after the administration of streptozotocin. […]
After the last administration of the test substance on Day 27 after administration of streptozotocin, urine was collected using a metabolic cage at room temperature for 24 hours. The urinary albumin concentration in the collected urine was measured by the ELISA method. From the urinary albumin concentration and the urine weight, the amount of urinary albumin excretion was calculated. In addition, on Day 18 after administration of streptozotocin, the systemic systolic pressure was measured by the tail-cuff method. On Day 29 after administration of streptozotocin, blood was collected from the abdominal aorta of each rat, and the plasma glucose concentration was measured. […]

SMILES | amount of urinary albumin excretion
CCOC(=O)[C@H](CCc1ccccc1)N[C@@H](C)C(=O)N1C(=O)N(C)C[C@H]1C(=O)O [imidapril, reference compound] | 5.66 ± 0.91 mg/day
